Source: patent US9085575B2, “Tri- and tetracyclic pyrazolo[3,4-B]pyridine compounds as antineoplastic agent” (PIERRE FABRE MEDICAMENT, priority 2011, dated 2015)

The compounds below were run against ALK (Homo sapiens, UniProt Q9UM73) (assay: Test for measurement of ALK inhibition (ELISA, GST-PLCγ1 substrate, luminescence)). Details: comparative tests; read-out: Alk enzymatic inhibition (IC50).
Type: biochemical
Procedure: Test for Measurement of ALK Inhibition
A ViewPlate microplate (Packard) is incubated with 0.1 mg/ml GST-PLCγ1 substrate (purified recombinant form) in phosphate buffer (PBS, pH 7.4) (100 μl/well) for one hour under stirring. The plate is then saturated with blocking solution comprising 5% bovine serum albumin (BSA) (Sigma) in PBS buffer, pH 7.4.
After having added the inhibitor at the desired final concentration (typical range between 30 μM and 10 nM), the reaction is carried out by adding 180 ng/ml ALK to a reaction buffer comprised of 13 mM Tris, pH 7.5 (Sigma); 6.5 mM MgCl2 (Merck); 0.65 mM dithiothreitol (DTT) (Acros); 39 mM sodium β-glycerophosphate (TCI); 0.65 mM sodium orthovanadate (Sigma); and 250 μM ATP (Sigma). Incubation is carried out for 30 minutes at 30° C. under stirring.
After three washings under stirring in 0.1% PBS/Tween-20 buffer (Sigma), an anti-phosphotyrosine antibody, coupled with HRP (UBI) diluted to 1/1000 in 5 mg/ml PBS/BSA buffer, is incubated for one hour with stirring. After three new washings in 0.1% PBS/Tween-20, the wells are incubated for two minutes with 100 μl of SuperSignal ELISA mixture (Pierce).
The signal is read in luminescence mode using a luminometer (SpectraMax M5e, Molecular Devices).

Sequence of ALK (Q9UM73 19-1620): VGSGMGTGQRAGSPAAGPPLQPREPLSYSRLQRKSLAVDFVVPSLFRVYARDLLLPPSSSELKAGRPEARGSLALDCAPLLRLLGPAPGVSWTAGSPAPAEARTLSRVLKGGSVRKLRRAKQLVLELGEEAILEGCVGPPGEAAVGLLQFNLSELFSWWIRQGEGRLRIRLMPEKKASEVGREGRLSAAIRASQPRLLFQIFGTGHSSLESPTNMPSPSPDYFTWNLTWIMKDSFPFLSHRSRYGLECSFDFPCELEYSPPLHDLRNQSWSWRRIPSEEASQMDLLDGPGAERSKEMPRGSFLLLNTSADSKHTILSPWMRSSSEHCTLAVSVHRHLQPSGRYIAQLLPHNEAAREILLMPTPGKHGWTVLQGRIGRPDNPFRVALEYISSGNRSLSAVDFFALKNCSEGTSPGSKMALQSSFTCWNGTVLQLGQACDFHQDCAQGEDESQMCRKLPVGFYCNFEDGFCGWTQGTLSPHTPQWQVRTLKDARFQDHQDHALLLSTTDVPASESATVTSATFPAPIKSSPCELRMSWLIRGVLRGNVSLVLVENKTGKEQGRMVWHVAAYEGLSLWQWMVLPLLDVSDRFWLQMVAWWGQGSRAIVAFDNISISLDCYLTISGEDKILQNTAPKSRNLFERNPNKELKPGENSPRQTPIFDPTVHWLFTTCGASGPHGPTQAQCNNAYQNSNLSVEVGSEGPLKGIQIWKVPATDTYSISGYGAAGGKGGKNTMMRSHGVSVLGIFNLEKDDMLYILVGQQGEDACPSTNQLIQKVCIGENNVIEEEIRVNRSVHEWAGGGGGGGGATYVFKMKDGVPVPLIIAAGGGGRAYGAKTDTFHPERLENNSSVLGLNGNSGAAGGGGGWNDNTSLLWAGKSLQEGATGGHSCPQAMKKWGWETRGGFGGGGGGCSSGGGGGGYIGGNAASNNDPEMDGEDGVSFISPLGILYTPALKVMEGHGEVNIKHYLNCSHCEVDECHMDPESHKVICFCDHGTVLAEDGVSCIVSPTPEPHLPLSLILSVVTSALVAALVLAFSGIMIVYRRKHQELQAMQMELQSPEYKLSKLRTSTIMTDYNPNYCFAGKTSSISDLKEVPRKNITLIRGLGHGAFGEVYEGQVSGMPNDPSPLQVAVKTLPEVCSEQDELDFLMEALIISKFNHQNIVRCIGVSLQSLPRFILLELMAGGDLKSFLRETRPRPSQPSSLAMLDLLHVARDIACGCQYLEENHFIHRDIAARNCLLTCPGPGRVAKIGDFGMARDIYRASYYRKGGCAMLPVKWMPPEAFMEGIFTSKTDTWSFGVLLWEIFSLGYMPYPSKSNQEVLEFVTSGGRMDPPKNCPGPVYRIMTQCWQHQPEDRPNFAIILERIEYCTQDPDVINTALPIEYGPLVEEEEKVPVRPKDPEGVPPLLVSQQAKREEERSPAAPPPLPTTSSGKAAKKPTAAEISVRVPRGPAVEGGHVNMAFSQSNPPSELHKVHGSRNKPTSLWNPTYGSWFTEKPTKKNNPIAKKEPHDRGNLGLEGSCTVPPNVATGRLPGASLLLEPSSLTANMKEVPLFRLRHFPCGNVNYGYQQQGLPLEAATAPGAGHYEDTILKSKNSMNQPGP

IC50	Structure (SMILES)
70 nM	Cc1n[nH]c2nc(-c3ccc(O)cc3)c3ccccc3c12 [Comparative compound 98, reference compound]
2.5 nM	Cc1n[nH]c2nc(-c3ccc(O)cc3)c3c(=O)[nH]c4ccccc4c3c12 [Compound 02]
35 nM	Cc1n[nH]c2nc(-c3ccc(O)cc3)c3cnc4ccccc4c3c12 [Compound 06]

Same assay, conditions: enzymatic IC50 on ALK, 250 μM ATP, class symbols; read-out: IC50 (ALK)

IC50	Structure (SMILES)
100 to 1000 nM	Cc1n[nH]c2nc(-c3ccc(O)cc3)c3c(=O)oc(-c4ccccc4)cc3c12 [Compound 28]
< 100 nM	Cc1n[nH]c2nc(-c3cc(O)cc(F)c3)c3c(=O)[nH]c4cc(N5CCNCC5)ccc4c3c12 [Compound 30]
1000 to 10000 nM	Cc1n[nH]c2nc(-c3cc(F)cc(F)c3)c3c(=O)[nH]c4cc(N5CCNCC5)ccc4c3c12 [Compound 31]
< 100 nM	Nc1n[nH]c2nc(-c3ccc(O)cc3)c3c(=O)[nH]c4cc(N5CCNCC5)ccc4c3c12 [Compound 32]
< 100 nM	CCOc1cc(F)cc(-c2nc3[nH]nc(C)c3c3c2c(=O)n(CC)c2cc(N4CCNCC4)ccc32)c1 [Compound 33]
1000 to 10000 nM	Cc1n[nH]c2nc(-c3ccc(O)cc3)c3c(=O)[nH]ccc3c12 [Compound 35]
1000 to 10000 nM	Nc1n[nH]c2nc(-c3cc(F)cc(F)c3)c3c(=O)[nH]c4cc(N5CCNCC5)ccc4c3c12 [Compound 36]
< 100 nM	CCn1c(=O)c2c(-c3ccc(O)cc3)nc3[nH]nc(N)c3c2c2ccc(N3CCNCC3)cc21 [Compound 37]
< 100 nM	Nc1n[nH]c2nc(-c3ccc(O)cc3F)c3c(=O)[nH]c4ccccc4c3c12 [Compound 38]
1000 to 10000 nM	Nc1n[nH]c2nc(-c3ccc(O)cc3)c3c(=O)[nH]ccc3c12 [Compound 39]
100 to 1000 nM	Cc1n[nH]c2nc(-c3ccc(O)c(C(F)(F)F)c3)c3c(=O)[nH]c4cc(N5CCNCC5)ccc4c3c12 [Compound 41]
< 100 nM	Nc1n[nH]c2nc(-c3ccc(O)cc3)c3c(=O)n(O)c4ccccc4c3c12 [Compound 42]
1000 to 10000 nM	CCn1ccc2c(c(-c3ccc(O)cc3)nc3[nH]nc(C)c32)c1=O [Compound 44]
1000 to 10000 nM	Cn1ccc2c(c(-c3cc(F)cc(F)c3)nc3[nH]nc(N)c32)c1=O [Compound 45]
< 100 nM	CCn1c(=O)c2c(-c3ccc(O)c(C(F)(F)F)c3)nc3[nH]nc(C)c3c2c2ccc(N3CCNCC3)cc21 [Compound 46]
100 to 1000 nM	CCOc1nc2cc(N3CCNCC3)ccc2c2c1c(-c1ccc(O)c(C(F)(F)F)c1)nc1[nH]nc(C)c12 [Compound 47]
1000 to 10000 nM	CCOC(=O)Oc1ccc(-c2nc3c(c(C)nn3C(=O)OCC)c3c2c(=O)[nH]c2cc(N4CCN(C(=O)OCC)CC4)ccc23)cc1 [Compound 48]
< 100 nM	CC(=O)Oc1ccc(-c2nc3c(c(C)nn3C(C)=O)c3c2c(=O)[nH]c2cc(N4CCNCC4)ccc23)cc1 [Compound 49]
100 to 1000 nM	Cc1nn(C(=O)OC(C)(C)C)c2nc(-c3ccc(OC(=O)C(C)(C)C)cc3)c3c(=O)[nH]c4cc(N5CCN(C(=O)OC(C)(C)C)CC5)ccc4c3c12 [Compound 50]
< 100 nM	COc1ccc(-c2nc3[nH]nc(N)c3c3c2c(=O)[nH]c2cc(N4CCNCC4)ccc23)cc1 [Compound 51]
< 100 nM	CN1CCN(c2ccc(C(=O)Nc3n[nH]c4nc(-c5ccc(O)cc5)c5c(=O)[nH]c6ccccc6c5c34)cc2)CC1 [Compound 52]
< 100 nM	Cc1n[nH]c2nc(-c3ccc(O)cc3)c3c(c12)CCNC3=O [Compound 53]
1000 to 10000 nM	CCn1cc(-c2ccc(N3CCNCC3)cc2)c2c(c(-c3ccc(O)cc3)nc3[nH]nc(N)c32)c1=O [Compound 54]
100 to 1000 nM	CCn1c(=O)c2c(-c3cc(F)cc(F)c3)nc3[nH]nc(N)c3c2c2ccc(N3CCNCC3)cc21 [Compound 55]

Further lines, the compound ahead of its results:

Structure (SMILES)	IC50
Cc1cc2c(o1)-c1c(c(-c3ccc(O)cc3)nc3[nH]nc(C)c13)C2=O [Compound 01]	< 100 nM
Cc1n[nH]c2nc(-c3ccc(O)cc3)c3c(=O)[nH]c4ccccc4c3c12 [Compound 02]	< 100 nM
O=C1c2cc(N3CCNCC3)ccc2-c2c1c(-c1c(F)ccc(F)c1F)nc1[nH]nc(-c3cccs3)c21 [Compound 03]	1000 to 10000 nM
Cc1n[nH]c2nc(-c3ccc(O)cc3)c3c(=O)[nH]c4cc(N5CCNCC5)ccc4c3c12 [Compound 04]	< 100 nM
O=c1[nH]c2ccccc2c2c1c(-c1ccc(O)cc1)nc1[nH]nc(-c3ccc(N4CCNCC4)cc3)c12 [Compound 05]	< 100 nM
Cc1n[nH]c2nc(-c3ccc(O)cc3)c3c(=O)n(CCCN(C)C)c4ccccc4c3c12 [Compound 07]	< 100 nM
COc1ccc(-c2nc3[nH]nc(C)c3c3c2c(=O)oc2ccccc23)cc1 [Compound 08]	1000 to 10000 nM
Cc1n[nH]c2nc(-c3ccc(O)cc3)c3c(=O)oc4ccccc4c3c12 [Compound 09]	100 to 1000 nM
Cc1n[nH]c2nc(-c3ccc(O)cc3)c3c(=O)n(CCCN4CCN(C)CC4)c4ccccc4c3c12 [Compound 10]	< 100 nM
Cc1n[nH]c2nc(-c3ccc(O)cc3)c3c(=O)[nH]c4cc(N5CC[C@@H](N)C5)ccc4c3c12 [Compound 11]	< 100 nM
Cc1n[nH]c2nc(-c3ccc(O)cc3)c3c(=O)n(CCCN(C)C)c4cc(N5CCNCC5)ccc4c3c12 [Compound 12]	< 100 nM
Cc1n[nH]c2nc(-c3ccc(O)cc3)c3c(=O)[nH]c4cc(OCCCN5CCNCC5)ccc4c3c12 [Compound 13]	< 100 nM
Cc1n[nH]c2nc(-c3ccc(O)cc3)c3c(=O)n(CCCN4CC[C@@H](N)C4)c4ccccc4c3c12 [Compound 14]	< 100 nM
Cc1n[nH]c2nc(-c3ccc(O)cc3)c3c(=O)n(CCN4CCNCC4)c4ccccc4c3c12 [Compound 15]	100 to 1000 nM
O=c1[nH]c2cc(N3CCNCC3)ccc2c2c1c(-c1ccc(O)cc1)nc1[nH]nc(-c3ccco3)c12 [Compound 16]	< 100 nM
CC(=O)Oc1ccc(-c2nc3[nH]nc(C)c3c3c2c(=O)[nH]c2cc(N4CCNCC4)ccc23)cc1 [Compound 17]	< 100 nM
Cc1n[nH]c2nc(-c3ccc(O)cc3)c3c(=O)[nH]c4cc(N5CCC(N)CC5)ccc4c3c12 [Compound 18]	< 100 nM
CCOc1ccc(-c2nc3[nH]nc(C)c3c3c2c(=O)[nH]c2cc(N4CCNCC4)ccc23)cc1 [Compound 19]	< 100 nM
CCn1c(=O)c2c(-c3ccc(O)cc3)nc3[nH]nc(C)c3c2c2ccc(N3CCNCC3)cc21 [Compound 20]	< 100 nM
Cc1n[nH]c2nc(-c3ccc(O)cc3)c3c(=O)[nH]c4cc(N5CCN(C6CCN(C)CC6)CC5)ccc4c3c12 [Compound 21]	< 100 nM
COc1ccc(-c2nc3[nH]nc(N)c3c3c2c(=O)[nH]c2ccc(N4CCNCC4)cc23)cc1 [Compound 22]	1000 to 10000 nM
CC(=O)Nc1n[nH]c2nc(-c3ccc(O)cc3)c3c(=O)[nH]c4ccccc4c3c12 [Compound 23]	< 100 nM
Nc1n[nH]c2nc(-c3ccc(O)cc3)c3c(=O)[nH]c4ccccc4c3c12 [Compound 24]	< 100 nM
Nc1n[nH]c2nc(-c3ccc(O)cc3)c3c(=O)[nH]c4ccc(N5CCNCC5)cc4c3c12 [Compound 25]	< 100 nM
Cc1n[nH]c2nc(-c3ccc(O)c(C(=O)O)c3)c3c(=O)[nH]c4cc(N5CCNCC5)ccc4c3c12 [Compound 27]	1000 to 10000 nM

Each compound was assayed on Karpas 299 cells (assay: Test for measurement of cell proliferation inhibition (Karpas 299), ATPlite). Details: Homo sapiens, Karpas 299 cell line, 72 hours.
Type: cell-based
Procedure: Test for Measurement of Cell Prolifearation Inhibition (Karpas 299)
The antiproliferative activity of the compounds according to the invention has been measured by the ATPlite technique (Perkin Ekmer).
Human cells of non-adherent anaplasic large cell lymphoma (Karpas 299) are seeded in 96-well plates (300,000 cells/ml) on day 1, at a concentration compatible with a logarithmic growth for 72 hours necessary for the evaluation of the compounds according to the invention. All the cells are treated on day 1 and then placed in an incubator at 37° C., under a 5% CO2 atmosphere. Cell viability is evaluated on day 4 by dosing the emitted ATP, which is a characteristic of viable cells. IC50s are determined by a non linear regression based on a sigmoidal model of dose/response relationship, the Hill coefficient being let variable, performed with the GraphPad software according to the algorithm provided.

IC50	Structure (SMILES)
4040 nM	Cc1n[nH]c2nc(-c3ccc(O)cc3)c3ccccc3c12 [Comparative compound 98, reference compound]
168 nM	Cc1n[nH]c2nc(-c3ccc(O)cc3)c3c(=O)[nH]c4ccccc4c3c12 [Compound 02]
1000 nM	Cc1n[nH]c2nc(-c3ccc(O)cc3)c3cnc4ccccc4c3c12 [Compound 06]
